Reference: article PMC2193345 (The Journal of Experimental Medicine, 2001)

Tests used:
Type in all cases: cell-based
DP [1] = target: T1, DP (Homo sapiens, UniProt Q13258); experiment: 3H-PGD2 competition binding, K562/DP cells
T1 sequence (Q13258 1-359): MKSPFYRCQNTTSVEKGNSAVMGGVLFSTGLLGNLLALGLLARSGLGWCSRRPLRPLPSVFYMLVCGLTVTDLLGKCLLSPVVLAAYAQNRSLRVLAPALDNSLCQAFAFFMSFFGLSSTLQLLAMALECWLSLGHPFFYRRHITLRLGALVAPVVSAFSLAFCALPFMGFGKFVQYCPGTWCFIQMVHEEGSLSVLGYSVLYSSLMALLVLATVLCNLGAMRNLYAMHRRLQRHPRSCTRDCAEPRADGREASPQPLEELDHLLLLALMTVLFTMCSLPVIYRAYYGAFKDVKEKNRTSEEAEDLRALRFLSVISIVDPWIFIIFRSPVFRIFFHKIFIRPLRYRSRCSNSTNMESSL

CRTH2 [2] = target: T2, CRTH2 (Homo sapiens, UniProt Q9Y5Y4); experiment: 3H-PGD2 competition binding, K562/CRTH2 cells
T2 sequence (Q9Y5Y4 1-395): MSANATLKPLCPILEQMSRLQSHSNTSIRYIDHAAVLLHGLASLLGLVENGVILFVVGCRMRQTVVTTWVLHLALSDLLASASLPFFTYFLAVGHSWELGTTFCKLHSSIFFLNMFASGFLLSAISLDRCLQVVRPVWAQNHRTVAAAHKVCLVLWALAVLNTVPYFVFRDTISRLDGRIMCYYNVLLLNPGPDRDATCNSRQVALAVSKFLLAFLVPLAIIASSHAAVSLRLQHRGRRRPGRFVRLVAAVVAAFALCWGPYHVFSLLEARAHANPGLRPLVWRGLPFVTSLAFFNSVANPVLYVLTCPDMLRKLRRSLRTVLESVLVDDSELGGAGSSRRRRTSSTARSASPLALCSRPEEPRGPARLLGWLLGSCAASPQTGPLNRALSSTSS

CRTH2 [3] = target: T2, CRTH2; experiment: 3H-PGD2 saturation binding
DP [4] = target: T1, DP; experiment: 3H-PGD2 saturation binding

| Ki (DP [1]) | Ki (CRTH2 [2]) | Kd (CRTH2 [3]) | Kd (DP [4]) | Structure (SMILES) |
| --- | --- | --- | --- | --- |
| > 30000 nM | 2300 nM |  |  | CCCCC/C=C/C=C1/C(=O)C=C[C@@H]1C/C=C\CCCC(=O)O [15-deoxy-Δ^12,14-PGJ2] |
| > 30000 nM | > 30000 nM |  |  | CCCCC/C=C\C[C@@H](O)/C=C/C=C/C=C\[C@@H](O)CCCC(=O)O [LTB4] |
| > 30000 nM | > 30000 nM |  |  | CCCCC[C@H](O)/C=C/C=C\C=C\C=C\[C@@H](O)[C@@H](O)CCCC(=O)O [LXA4] |
| > 30000 nM | > 30000 nM |  |  | CCCCC[C@H](O)/C=C/[C@H]1C=CC(=O)[C@@H]1C/C=C\CCCC(=O)O [PGA2] |
| 2300 nM | 3100 nM |  |  | CCCCC[C@H](O)/C=C/[C@H]1[C@H](O)CC(=O)[C@@H]1C/C=C\CCCC(=O)O [PGE2] |
| 64 ± 13 nM | 460 ± 160 nM |  |  | CCCCC[C@H](O)/C=C/[C@H]1C(=O)C=C[C@@H]1C/C=C\CCCC(=O)O [PGJ2] |

The next lines start with the compound.

| Structure (SMILES) | Ki (DP [1]) | Ki (CRTH2 [2]) | Kd (CRTH2 [3]) | Kd (DP [4]) |
| --- | --- | --- | --- | --- |
| CCCCC[C@H](O)/C=C/[C@@H]1[C@@H](C/C=C\CCCC(=O)O)[C@@H](O)C[C@@H]1O [11β-PGF2α] | 1200 nM | 20000 nM |  |  |
| O=C(O)CCCCCC[C@H]1C(=O)NC(=O)N1CC[C@@H](O)C1CCCCC1 [BW245C] | 50 ± 20 nM | > 100000 nM |  |  |
| CCCCCC(=O)CC[C@H]1C(=O)C[C@H](O)[C@@H]1C/C=C\CCCC(=O)O [DK-PGD2, 13,14-dihydro-15-keto-PGD2] | > 30000 nM | 160 ± 35 nM |  |  |
| CCCCC[C@H](O)/C=C/[C@H]1C(=O)C[C@H](O)[C@@H]1C/C=C\CCCC(=O)OC [PGD2 methyl ester] | 270 ± 46 nM | 460 ± 120 nM |  |  |
| CCCCC[C@H](O)/C=C/[C@H]1C(=O)C[C@H](O)[C@@H]1C/C=C\CCCC(=O)O [PGD2] | 45 ± 17 nM | 61 ± 23 nM | 31.3 nM | 37.7 nM |
| CCCCC[C@H](O)/C=C/[C@@H]1[C@@H](C/C=C\CCCC(=O)O)[C@@H](O)C[C@H]1O [PGF2α] | > 30000 nM | 2000 nM |  |  |
| CCCCC[C@H](O)/C=C/[C@@H]1[C@@H](C/C=C\CCCC(=O)O)[C@H]2CO[C@@H]1C2 [U46619] | > 30000 nM | > 30000 nM |  |  |
| CCCCC[C@H](O)C/C=C1/C(=O)C=C[C@@H]1C/C=C\CCCC(=O)O [Δ^12-PGJ2] | 5200 nM | 7100 nM |  |  |
